Experimental data as given in patent US10239887B2, “Positive allosteric modulators of the muscarinic acetylcholine receptor M4” (Vanderbilt University, priority 2016, dated 2019).
Converted amounts (≈) assume the structure as drawn.

Experiments:
intrinsic clearance, rat = assay type: in vitro ADME
Experimental: (§1) Compound 76 was in several in vitro assays to investigate both metabolism and pharmacokinetics. These assays were performed according to known methods as generally described in the following references: Conde-Ceide et al. ACS Med. Chem. Lett. 2015, 6, 716-720; Morris et al. J. Med. Chem. 2014, 57, 10192-10197; and Bubser et al. ACS Chem. Neurosci. 2014, 5, 920-942.

[1] = MDCK-MDR1 permeability and efflux; assay type: in vitro ADME; conditions: dog, MDCK-MDR1
Experimental: as §1

MDCK-MDR1 = MDCK-MDR1 permeability and efflux; assay type: in vitro ADME; conditions: efflux ratio
Experimental: as §1

P450 3A4 = P450 3A4 (Homo sapiens, UniProt P08684); assay: P450 3A4 inhibition; assay type: in vitro ADME
P450 3A4, sequence (P08684 whole entry): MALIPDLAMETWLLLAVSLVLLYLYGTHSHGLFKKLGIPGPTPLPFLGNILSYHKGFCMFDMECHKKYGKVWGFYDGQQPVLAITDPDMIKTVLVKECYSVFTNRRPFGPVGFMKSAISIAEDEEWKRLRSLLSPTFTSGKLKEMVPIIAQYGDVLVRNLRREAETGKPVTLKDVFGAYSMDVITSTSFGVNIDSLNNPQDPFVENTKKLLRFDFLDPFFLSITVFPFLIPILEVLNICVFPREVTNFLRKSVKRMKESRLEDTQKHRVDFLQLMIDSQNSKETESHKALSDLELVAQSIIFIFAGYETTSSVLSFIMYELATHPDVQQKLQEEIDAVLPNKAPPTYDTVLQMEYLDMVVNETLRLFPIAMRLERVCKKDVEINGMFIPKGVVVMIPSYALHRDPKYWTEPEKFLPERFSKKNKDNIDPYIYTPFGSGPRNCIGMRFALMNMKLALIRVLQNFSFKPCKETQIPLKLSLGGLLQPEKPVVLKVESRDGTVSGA
Experimental: as §1

[2] = solubility (aqueous, faSSIF, SGF); assay type: physicochemical
[3] = system: 68 primary molecular targets; assay: Eurofins LeadProfilingScreen (binding); conditions: 10 μM (binding); all targets except human adenosine A2a
[4] = fraction unbound in plasma, cyno; assay type: in vitro ADME; conditions: cynomolgus monkey, read-out: Cyno Fu (plasma)
Experimental: as §1

in vivo [5] = conditions: rat
bacterial = bacterial cytotoxicity assay; assay type: cell-based; conditions: 0.6-100 μM
intrinsic clearance, dog = assay type: in vitro ADME
Experimental: as §1

in vivo DMPK, dog = conditions: 3 mg/kg
P450 1A2 = target: T1, P450 1A2 (Homo sapiens, UniProt P05177); assay: P450 1A2 inhibition; assay type: in vitro ADME
T1 sequence (P05177 1-516): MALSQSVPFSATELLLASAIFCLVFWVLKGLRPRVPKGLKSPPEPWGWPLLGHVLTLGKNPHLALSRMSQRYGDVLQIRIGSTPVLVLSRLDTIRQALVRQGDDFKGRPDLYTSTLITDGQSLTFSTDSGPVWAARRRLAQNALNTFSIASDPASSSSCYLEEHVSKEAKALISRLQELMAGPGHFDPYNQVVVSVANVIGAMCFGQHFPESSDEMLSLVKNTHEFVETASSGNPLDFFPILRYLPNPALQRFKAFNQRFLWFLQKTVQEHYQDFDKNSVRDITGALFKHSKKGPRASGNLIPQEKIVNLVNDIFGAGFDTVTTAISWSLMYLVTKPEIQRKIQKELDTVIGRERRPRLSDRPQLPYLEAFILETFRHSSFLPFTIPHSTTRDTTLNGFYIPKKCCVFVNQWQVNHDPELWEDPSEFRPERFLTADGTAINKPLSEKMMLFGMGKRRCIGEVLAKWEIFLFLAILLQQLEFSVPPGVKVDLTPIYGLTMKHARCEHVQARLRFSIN
Experimental: as §1

P450 2C9 = P450 2C9 (Homo sapiens, UniProt P11712); assay: P450 2C9 inhibition; assay type: in vitro ADME
P450 2C9, sequence (P11712 whole entry): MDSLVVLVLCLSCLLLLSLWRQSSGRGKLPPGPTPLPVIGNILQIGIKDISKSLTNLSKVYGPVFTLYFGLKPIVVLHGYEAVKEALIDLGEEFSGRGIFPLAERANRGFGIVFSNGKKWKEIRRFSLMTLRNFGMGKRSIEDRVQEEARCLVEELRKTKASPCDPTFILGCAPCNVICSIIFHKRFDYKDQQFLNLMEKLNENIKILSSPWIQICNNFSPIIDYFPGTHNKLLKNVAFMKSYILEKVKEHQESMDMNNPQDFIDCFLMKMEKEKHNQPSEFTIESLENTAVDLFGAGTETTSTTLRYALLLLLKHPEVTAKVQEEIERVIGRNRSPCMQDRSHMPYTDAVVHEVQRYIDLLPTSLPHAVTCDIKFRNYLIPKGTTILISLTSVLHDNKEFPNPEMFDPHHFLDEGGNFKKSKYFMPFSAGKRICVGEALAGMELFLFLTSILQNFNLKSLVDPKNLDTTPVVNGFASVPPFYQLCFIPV
Experimental: as §1

[6] = intrinsic clearance, cyno; assay type: in vitro ADME; conditions: cynomolgus monkey
Experimental: as §1

[7] = fraction unbound in plasma, dog; assay type: in vitro ADME; conditions: read-out: Dog Fu (plasma)
Experimental: as §1

cynomolgus monkey M4 = cynomolgus monkey M4 (Macaca fascicularis, UniProt G7PQB4); assay: mAChR M4 cell-based functional assay (calcium flux), cyno M4; conditions: CHO-K1 cells
cynomolgus monkey M4, sequence (G7PQB4 1-479): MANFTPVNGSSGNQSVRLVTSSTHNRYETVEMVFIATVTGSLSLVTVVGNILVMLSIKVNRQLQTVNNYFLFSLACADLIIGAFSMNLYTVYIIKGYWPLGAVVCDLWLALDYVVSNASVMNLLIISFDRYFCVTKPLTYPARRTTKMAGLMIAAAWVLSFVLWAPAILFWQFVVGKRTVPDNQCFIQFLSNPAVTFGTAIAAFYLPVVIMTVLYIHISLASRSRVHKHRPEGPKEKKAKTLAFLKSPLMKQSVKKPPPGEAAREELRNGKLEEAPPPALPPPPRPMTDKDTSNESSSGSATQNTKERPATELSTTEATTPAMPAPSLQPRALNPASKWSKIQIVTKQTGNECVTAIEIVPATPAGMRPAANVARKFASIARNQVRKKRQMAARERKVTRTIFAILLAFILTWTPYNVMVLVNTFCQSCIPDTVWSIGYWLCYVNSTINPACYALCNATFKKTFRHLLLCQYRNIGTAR

in vivo [8] = conditions: dog, plasma
human mAChR M4 = target: T2, human mAChR M4 (Homo sapiens, UniProt P08173); assay: mAChR M4 cell-based functional assay (calcium flux), human M4; conditions: Human M4; % ACh maximum at 30 μM
T2 sequence (P08173 1-479): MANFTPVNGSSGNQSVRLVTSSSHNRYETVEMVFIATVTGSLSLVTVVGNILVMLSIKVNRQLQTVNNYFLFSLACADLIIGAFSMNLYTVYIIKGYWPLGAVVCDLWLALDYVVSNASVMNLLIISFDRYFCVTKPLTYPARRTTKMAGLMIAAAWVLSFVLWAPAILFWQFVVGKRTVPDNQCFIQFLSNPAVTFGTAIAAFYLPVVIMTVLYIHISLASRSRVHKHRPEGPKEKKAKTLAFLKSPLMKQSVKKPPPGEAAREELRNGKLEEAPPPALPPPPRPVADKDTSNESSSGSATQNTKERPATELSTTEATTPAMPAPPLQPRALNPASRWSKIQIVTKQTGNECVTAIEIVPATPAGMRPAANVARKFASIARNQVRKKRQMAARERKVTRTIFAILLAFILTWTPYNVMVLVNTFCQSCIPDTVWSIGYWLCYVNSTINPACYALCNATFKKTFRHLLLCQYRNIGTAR

Cc1nnc2sc3c(NCc4ccc(C(C)(C)O)cc4)ncnc3c2c1C [Compound 76, 2-[4-[[(3,4-Dimethylpyrimido[4′,5′:4,5]thieno[2,3-c]pyridazin-8-yl)amino]methyl]phenyl]propan-2-ol]
CLint scaled (intrinsic clearance, rat): 5.22 L/h/kg | Papp A→B [1]: 200 nm/s | MDCK-MDR1 ER (MDCK-MDR1): 3.1 (Papp A→B: | IC50 (P450 3A4): 24 µM | solubility ([2]; aqueous medium (pH 7.4), pH 7.4, aqueous buffer): 166 µM (≈ 63 µg/mL) | SGF ([2]; solubility in SGF): 180 µM | faSSIF ([2]; solubility in faSSIF): 24 µM | inhibition of each target in the LeadProfilingScreen [3]: < 50% | fraction unbound [4]: 0.009 | Kp (in vivo [5]; brain): 0.31 | Vd (in vivo [5]; plasma): 1 L/kg | clearance (in vivo [5]; plasma): 0.264 L/h/kg | half-life (in vivo [5]; plasma): 3 h | Cyno oral F (in vivo DMPK, cyno; 3 mg/kg): 44% | Cyno CSF: plasma Kp (in vivo DMPK, cyno; cynomolgus monkey, in vivo): 0.01 | Cyno CSF: plasma Kp, u (in vivo DMPK, cyno; cynomolgus monkey, in vivo): 1.1 | bacterial cytotoxicity result (bacterial): clean | CLint scaled (intrinsic clearance, dog): 2.1 L/h/kg | Dog oral F (in vivo DMPK, dog): 54% | IC50 (P450 1A2): > 30 µM | IC50 (P450 2C9): 16 µM | CLint scaled [6]: 6.12 L/h/kg | fraction unbound [7]: 0.057 | EC50 (cynomolgus monkey M4): 0.12 µM | Vd (in vivo [8]): 1.4 L/kg | clearance (in vivo [8]): 0.282 L/h/kg | half-life (in vivo [8]): 4.2 h | Emax (human mAChR M4): 86%
